According to publication PMC9554301, “Rapid modeling of experimental molecular kinetics with simple electronic circuits instead of with complex differential equations” (Frontiers in Bioengineering and Biotechnology, 2022):

Legend:
beta-galactosidase [1] = molecular target: T1, beta-galactosidase (Escherichia coli, UniProt P00722); test: product-feedback inhibition of ONPG hydrolysis, absorbance at […] nm; type: biochemical
T1 construct: gene lacZ

beta-galactosidase [2] = molecular target: T1, beta-galactosidase; test: ONPG hydrolysis absorbance assay at […] nm, Lineweaver-Burk; type: biochemical
beta-galactosidase [3] = molecular target: T1, beta-galactosidase; test: hydrolysis kinetics (Km), absorbance of 2-nitrophenol at […] nm; type: biochemical
[4] = substrate: CCO; test: ethanol oxidation kinetics (Km), NADH absorbance, Lineweaver-Burk; type: biochemical, Saccharomyces cerevisiae; details: NAD+ binds the E-NAD complex (ordered Bi-Bi)

T1 sequence (P00722 2-1024): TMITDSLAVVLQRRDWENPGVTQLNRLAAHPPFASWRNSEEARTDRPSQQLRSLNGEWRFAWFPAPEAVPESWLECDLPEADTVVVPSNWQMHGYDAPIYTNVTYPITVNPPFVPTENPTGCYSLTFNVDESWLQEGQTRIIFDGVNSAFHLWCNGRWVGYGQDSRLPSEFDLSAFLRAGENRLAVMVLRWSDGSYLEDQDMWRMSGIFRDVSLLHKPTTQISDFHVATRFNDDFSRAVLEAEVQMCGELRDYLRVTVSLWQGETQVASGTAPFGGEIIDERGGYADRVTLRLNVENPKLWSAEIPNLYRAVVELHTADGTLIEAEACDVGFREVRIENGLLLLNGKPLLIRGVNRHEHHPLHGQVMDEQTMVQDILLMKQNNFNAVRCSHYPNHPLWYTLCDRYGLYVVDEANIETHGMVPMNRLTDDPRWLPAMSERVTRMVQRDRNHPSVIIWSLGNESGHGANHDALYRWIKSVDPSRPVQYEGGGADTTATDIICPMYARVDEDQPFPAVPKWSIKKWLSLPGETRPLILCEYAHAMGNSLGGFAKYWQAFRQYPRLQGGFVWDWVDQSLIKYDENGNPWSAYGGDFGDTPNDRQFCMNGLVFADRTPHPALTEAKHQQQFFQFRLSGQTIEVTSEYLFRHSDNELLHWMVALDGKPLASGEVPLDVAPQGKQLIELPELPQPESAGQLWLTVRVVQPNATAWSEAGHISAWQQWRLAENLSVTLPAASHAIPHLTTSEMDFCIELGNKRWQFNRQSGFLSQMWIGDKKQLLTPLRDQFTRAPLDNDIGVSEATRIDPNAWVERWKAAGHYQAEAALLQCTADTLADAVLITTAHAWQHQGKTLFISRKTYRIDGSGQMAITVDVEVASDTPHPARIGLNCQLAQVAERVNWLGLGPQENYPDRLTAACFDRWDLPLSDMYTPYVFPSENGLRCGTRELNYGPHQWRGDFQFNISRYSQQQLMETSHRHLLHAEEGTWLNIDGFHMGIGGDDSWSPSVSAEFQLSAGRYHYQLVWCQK

OC[C@H]1OC(O)[C@H](O)[C@@H](O)[C@H]1O (stereo partly shown) [Gal, galactose]
Ki (beta-galactosidase [1]): 13.7 mM

OC[C@H]1O[C@@H](SCCc2ccccc2)[C@H](O)[C@@H](O)[C@H]1O [PETG, phenylethyl beta-D-thiogalactopyranoside]
Ki (beta-galactosidase [2]): 0.00233 mM

O=[N+]([O-])c1ccccc1O[C@@H]1O[C@H](CO)[C@H](O)[C@H](O)[C@H]1O [ONPG, o-nitrophenyl-β-D-galactopyranoside]
Km (beta-galactosidase [3]): 167 µM

B1: alcohol dehydrogenase (Saccharomyces cerevisiae S288C) (protein)
chain: SIPETQKGVIFYESHGKLEYKDIPVPKPKANELLINVKYSGVCHTDLHAWHGDWPLPVKLPLVGGHEGAGVVVGMGENVKGWKIGDYAGIKWLNGSCMACEYCELGNESNCPHADLSGYTHDGSFQQYATADAVQAAHIPQGTDLAQVAPILCAGITVYKALKSANLMAGHWVAISGAAGGLGSLAVQYAKAMGYRVLGIDGGEGKEELFRSIGGEVFIDFTKEKDIVGAVLKATDGGAHGVINVSVSEAAIEASTRYVRANGTTVLVGMPAGAKCCSDVFNQVVKSISIVGSYVGNRADTREALDFFARGLVKSPIKVVGLSTLPEIYEKMEKGQIVGRYVVDTSK
notes: yeast alcohol dehydrogenase (cat# A7011)
Km [4]: 14300 µM
